Data reported in patent US20250122174A1 (Shenzhen Yuanli Shenwan Innovative Medicine Co., Ltd., priority 2022, published 2025).

Molecular target: HPK1 (Homo sapiens (Human), UniProt Q92918)
Assay: HPK1 Inhibition Assay (ADP-Glo kinase assay)
Assay type: biochemical
Details: ATP 10 μM
Summary of the method: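 ADP-Glo luminescence read-out after 1 h room-temperature kinase reaction with 10 μM ATP and 0.1 μg/ml MBP. Recombinant human HPK1 at 7.5 ng/μl; buffer 40 mM Tris pH 7.5, 20 mM MgCl2. Compounds serially diluted 5-fold over 10 points from 10 mM DMSO stock.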

Sequence of HPK1 (Q92918 1-346 limits assumed): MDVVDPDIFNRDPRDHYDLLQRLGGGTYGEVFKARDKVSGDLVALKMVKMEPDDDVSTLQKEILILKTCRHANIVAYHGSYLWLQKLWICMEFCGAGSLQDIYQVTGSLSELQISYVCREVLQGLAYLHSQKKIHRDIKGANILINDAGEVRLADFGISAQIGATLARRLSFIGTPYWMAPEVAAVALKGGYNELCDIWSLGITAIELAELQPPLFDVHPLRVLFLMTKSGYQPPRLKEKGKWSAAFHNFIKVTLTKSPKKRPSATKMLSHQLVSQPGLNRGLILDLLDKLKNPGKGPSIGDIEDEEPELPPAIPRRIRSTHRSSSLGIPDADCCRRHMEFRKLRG

Row | IC50 [nM] | SMILES
1 | < 100 | C[C@H]1CN(c2c(NC(=O)c3ccc(=O)n(-c4c(F)cccc4F)n3)ccc3c2cnn3[C@@H]2CCOC2)C[C@@H]1N [Example 259, N-(4-((3R,4S)-3-amino-4-methylpyrrolidin-1-yl)-1-((R)-tetrahydrofuran-3-yl)-1H-indazol-5-yl)-1-(2,6-difluorophenyl)-6-oxo-1,6-dihydropyridazine-3-carboxamide]
2 | < 100 | C[C@@H]1CN(c2c(NC(=O)c3ccc(=O)n(-c4c(F)cccc4F)n3)ccc3nn(C4(C(F)(F)F)CC4)cc23)C[C@@H]1N [Example 315, N-(4-((3R,4R)-3-amino-4-methylpyrrolidin-1-yl)-2-(1-(trifluoromethyl)cyclopropyl)-2H-indazol-5-yl)-1-(2,6-difluorophenyl)-6-oxo-1,6-dihydropyridazine-3-carboxamide]
3 | < 100 | CC1(n2cc3c(N4C[C@H](N)C5(CC5)C4)c(NC(=O)c4ccc(=O)n(-c5c(F)cccc5F)n4)ccc3n2)CC1 [Example 311, (R)-N-(4-(7-amino-5-azaspiro[2.4]heptan-5-yl)-2-(1-methylcyclopropyl)-2H-indazol-5-yl)-1-(2,6-difluorophenyl)-6-oxo-1,6-dihydropyridazine-3-carboxamide]
4 | < 100 | C[C@H]1CN(c2c(NC(=O)c3ccc(=O)n(-c4c(F)cccc4F)n3)ccc3nn(C45CC(C4)C5)cc23)C[C@@H]1N [Example 320, N-(4-((3R,4S)-3-amino-4-methylpyrrolidin-1-yl)-2-(bicyclo[1.1.1]pentan-1-yl)-2H-indazol-5-yl)-1-(2,6-difluorophenyl)-6-oxo-1,6-dihydropyridazine-3-carboxamide]
5 | < 100 | Cc1nc2c(N3C[C@H](N)C(C)(C)C3)c(NC(=O)c3ccc(=O)n(-c4c(F)cccc4F)n3)ccc2n1[C@H]1CCOC1 [Example 150, N-(4-((R)-4-amino-3,3-dimethylpyrrolidin-1-yl)-2-methyl-1-((S)-tetrahydrofuran-3-yl)-1H-benzo[d]imidazol-5-yl)-1-(2,6-difluorophenyl)-6-oxo-1,6-dihydropyridazine-3-carboxamide]
6 | < 100 | CC(C)n1ncc2c(N3C[C@@H](N)C(C)(C)C3)c(NC(=O)c3ccc(=O)n(-c4c(F)cccc4F)n3)ccc21 [Example 187, (S)-N-(4-(4-amino-3,3-dimethylpyrrolidin-1-yl)-1-isopropyl-1H-indazol-5-yl)-1-(2,6-difluorophenyl)-6-oxo-1,6-dihydropyridazine-3-carboxamide]
7 | < 100 | CC(C)n1cc2c(N3C[C@H](N)C(C)(C)C3)c(NC(=O)c3ccc(=O)n(-c4c(F)cccc4F)n3)ccc2n1 [Example 227, (R)-N-(4-(4-amino-3,3-dimethylpyrrolidin-1-yl)-2-isopropyl-2H-indazol-5-yl)-1-(2,6-difluorophenyl)-6-oxo-1,6-dihydropyridazine-3-carboxamide]
8 | < 100 | Cc1nc2c(N3C[C@H](N)C4(CC4)C3)c(NC(=O)c3ccc(=O)n(-c4c(F)cccc4F)n3)ccc2n1C1CCOCC1 [Example 151, 1-(2,6-difluorophenyl)-N-(4-[(7R)-7-amino-5-azaspiro[2.4]heptan-5-yl]-2-methyl-1-(3,4,5,6-tetrahydro-2H-pyran-4-yl)benzo[d]imidazol-5-yl)-6-oxo-1,2-diazine-3-carboxamide]
9 | < 100 | Cc1cc(NC(=O)c2ccc(=O)n(-c3c(F)cccc3F)n2)c(N2CC[C@@H](N)C2)c2cnn(C(C)C)c12 [Example 185, (R)-N-(4-(3-aminopyrrolidin-1-yl)-1-isopropyl-7-methyl-1H-indazol-5-yl)-1-(2,6-difluorophenyl)-6-oxo-1,6-dihydropyridazine-3-carboxamide]
10 | < 100 | Cn1cc2c(N3CCC(N)CC3)c(NC(=O)c3ccc(=O)n(-c4c(F)cccc4F)n3)ccc2n1 [Example 177, N-(4-(4-aminopiperidin-1-yl)-2-methyl-2H-indazol-5-yl)-1-(2,6-difluorophenyl)-6-oxo-1,6-dihydropyridazine-3-carboxamide]
11 | < 100 | C[C@@H]1CN(c2c(NC(=O)c3ccc(=O)n(-c4c(F)cccc4F)n3)ccc3nn(C45CC6CC(CC(C6)C4)C5)cc23)C[C@@H]1N [Example 305, N-(2-((3S,5S,7S)-adamantan-1-yl)-4-((3R,4R)-3-amino-4-methylpyrrolidin-1-yl)-2H-indazol-5-yl)-1-(2,6-difluorophenyl)-6-oxo-1,6-dihydropyridazine-3-carboxamide]
12 | < 100 | COCCn1ncc2c(N3CC[C@@H](N)C3)c(NC(=O)c3ccc(=O)n(-c4c(F)cccc4F)n3)ccc21 [Example 285, (R)-N-(4-(3-aminopyrrolidin-1-yl)-1-(2-methoxyethyl)-1H-indazol-5-yl)-1-(2,6-difluorophenyl)-6-oxo-1,6-dihydropyridazine-3-carboxamide]
13 | < 100 | Cn1c(C2(C(F)(F)F)CC2)nc2c(N3C[C@H](N)C4(CC4)C3)c(NC(=O)c3ccc(=O)n(-c4c(F)cccc4F)n3)ccc21 [Example 149, (R)-N-(4-(7-amino-5-azaspiro[2.4]heptan-5-yl)-1-methyl-2-(1-(trifluoromethyl)cyclopropyl)-1H-benzo[d]imidazol-5-yl)-1-(2,6-difluorophenyl)-6-oxo-1,6-dihydropyridazine-3-carboxamide]

The next lines start with the molecule.

Row | SMILES | IC50 [nM]
14 | Cn1c(C(C)(C)C)nc2c(N3CCC[C@H]3CN)c(NC(=O)c3ccc(=O)n(-c4c(F)cccc4F)n3)ccc21 [Example 103] | < 100
15 | CC(C)c1nc2c(N3CC[C@@H](O)C3)c(NC(=O)c3ccc(=O)n(-c4c(F)cccc4F)n3)ccc2n1C [Example 117, (R)-1-(2,6-difluorophenyl)-N-(4-(3-hydroxypyrrolidin-1-yl)-2-isopropyl-1-methyl-1H-benzo[d]imidazol-5-yl)-6-oxo-1,6-dihydropyridazine-3-carboxamide] | < 100
16 | Cn1c(C2(C(F)(F)F)CC2)nc2c(N3CC[C@@H](N)C3)c(NC(=O)c3ccc(=O)n(-c4c(F)cccc4F)n3)ccc21 [Example 146, (R)—N-(4-(3-aminopyrrolidin-1-yl)-1-methyl-2-(1-(trifluoromethyl)cyclopropyl)-1H-benzo[d]imidazol-5-yl)-1-(2,6-difluorophenyl)-6-oxo-1,6-dihydropyridazine-3-carboxamide] | < 100
17 | COc1ccc(F)cc1-n1nccc(C(=O)Nc2ccc3c(nc(C)n3C)c2N2CC[C@H](N)C2)c1=O [Example 50, (S)—N-(4-(3-aminopyrrolidin-1-yl)-1,2-dimethyl-1H-benzo[d]imidazol-5-yl)-2-(5-fluoro-2-methoxyphenyl)-3-oxo-2,3-dihydropyridazine-4-carboxamide] | < 100
18 | Cc1nc2c(N3C[C@H]4C[C@@H]3CN4)c(NC(=O)c3ccc(=O)n(-c4c(F)cccc4F)n3)ccc2n1C [Example 80, N-(4-((1R,4R)-2,5-diazabicyclo[2.2.1]heptan-2-yl)-1,2-dimethyl-1H-benzo[d]imidazol-5-yl)-1-(2,6-difluorophenyl)-6-oxo-1,6-dihydropyridazine-3-carboxamide] | < 100
19 | Cc1nc2c(N3CC[C@H](O)C3)c(NC(=O)c3ccc(=O)n(-c4c(F)cccc4F)n3)ccc2n1C [Example 82, (S)-1-(2,6-difluorophenyl)-N-(4-(3-hydroxypyrrolidin-1-yl)-1,2-dimethyl-1H-benzo[d]imidazol-5-yl)-6-oxo-1,6-dihydropyridazine-3-carboxamide] | < 100
20 | CC(C)c1nc2c(N3CC[C@@H](N)C3)c(NC(=O)c3nn(-c4c(F)cccc4F)c(=O)cc3Cl)ccc2n1C [Example 120, (R)-N-(4-(3-aminopyrrolidin-1-yl)-2-isopropyl-1-methyl-1H-benzo[d]imidazol-5-yl)-4-chloro-1-(2,6-difluorophenyl)-6-oxo-1,6-dihydropyridazine-3-carboxamide] | < 100
21 | Cc1nc2c(N3CCC(N)C(F)(F)C3)c(NC(=O)c3ccc(=O)n(-c4c(F)cccc4F)n3)ccc2n1C (centres unmarked) [Example 95, N-(4-(4-amino-3,3-difluoropiperidin-1-yl)-1,2-dimethyl-1H-benzo[d]imidazol-5-yl)-1-(2,6-difluorophenyl)-6-oxo-1,6-dihydropyridazine-3-carboxamide] | < 100
22 | CC(C)n1cc2c(N3CC[C@@H](N)C3)c(NC(=O)c3ccc(=O)n(-c4c(F)cccc4F)n3)ccc2n1 [Example 114, (R)-N-(4-(3-aminopyrrolidin-1-yl)-2-isopropyl-2H-indazol-5-yl)-1-(2,6-difluorophenyl)-6-oxo-1,6-dihydropyridazine-3-carboxamide] | < 100
23 | CC(C)c1nc2c(N3CC[C@@H](N)C3)c(NC(=O)c3ccc(=O)n(-c4c(F)cccc4F)n3)ccc2n1C [Example 109, (R)—N-(4-(3-aminopyrrolidin-1-yl)-2-isopropyl-1-methyl-1H-benzo[d]imidazol-5-yl)-1-(2,6-difluorophenyl)-6-oxo-1,6-dihydropyridazine-3-carboxamide] | < 100
24 | Cn1c(-c2ccncc2F)nc2c(N3CC[C@H](N)C3)c(NC(=O)c3ccnn(-c4c(F)cccc4F)c3=O)ccc21 [Example 42, N-{4-[(35)-3-aminopyrrolidin-1-yl]-2-(3-fluoropyridin-4-yl)-1-methyl-1,3-benzodiazol-5-yl}-2-(2,6-difluorophenyl)-3-oxopyridazine-4-carboxamide] | < 100
25 | Cc1nc2c(N3CC[C@H](N)C3)c(NC(=O)c3ccnn(-c4c(F)cccc4F)c3=O)ccc2n1C1CC1 [Example 48, N-{4-[(35)-3-aminopyrrolidin-1-yl]-1-cyclopropyl-2-methyl-1,3-benzodiazol-5-yl}-2-(2,6-difluorophenyl)-3-oxopyridazine-4-carboxamide] | 100 to 1000
26 | COc1cccc(F)c1-c1cccc(C(=O)Nc2cc(F)ccc2N2C[C@H]3C[C@@H]2CN3)c1F [Example 3, N-(2-((1R,4R)-2,5-diazabicyclo[2.2.1]heptan-2-yl)-5-fluorophenyl)-2,2′-difluoro-6′-methoxy-[1,1′-biphenyl]-3-carboxamide] | 100 to 1000
